# Experimental data taken from patent US20260207717A1, “METHODS FOR TREATING INFANTILE-ONSET POMPE DISEASE IN PEDIATRIC PATIENTS” (Amicus Therapeutics, Inc., priority 2022, published 2026).
# Key:
# [1] = tested on: creatine kinase (CK), urinary hexose tetrasaccharide (Hex4); assay: ATB200-03 (PROPEL) trial, biomarkers; format: in vivo, human; details: for mean urinary Glc4 concentration: ERT-experienced patients
# Description: Pharmacodynamic endpoints were as follows: • change from baseline to Week 52 in serum CK level • change from baseline to Week 52 in urinary Hex4 level
# [2] = tested on: LAMP1, LC3, dysferlin in muscle fibers; assay: Biomarker changes (LAMP1, LC3, dysferlin) in muscle of Gaa KO mice; format: in vivo
# Description: The therapeutic effects of ATB200 and miglustat were evaluated and compared against those of Alglucosidase alfa in Gaa KO mice. For the study, male Gaa KO (3- to 4-month old) and age-matched wild-type (WT) mice were used. Alglucosidase alfa was administered via bolus tail vein intravenous (IV) injection. In the co-administration regimen, miglustat was administered via oral gavage (PO) 30 minutes prior to the IV injection of ATB200. Treatment was given biweekly. Treated mice were sacrificed after 14 days from the last administration and various tissues were collected for further analysis. Table 11 summarizes the study design:
# Tissue samples were also analyzed for biomarker changes following the methods discussed in: Khanna R, et al. (2012), “The pharmacological chaperone [i.e., enzyme stabilizer] […]
# Similarly, intense LC3-positive aggregates in the muscle fibers of untreated Gaa KO mice signify the presence of autophagic zones and autophagy build-up. […] A similar observation was made when the expression of LC3 was assessed using western blot. […]
# Dysferlin, a protein involved in membrane repair and whose deficiency/mistrafficking is associated with a number of muscular dystrophies, was also assessed.
# [3] = tested on: adult subjects with late-onset Pompe disease (LOPD); assay: ATB200-03 (PROPEL) trial, safety; design: species or system human; details: in vivo
# Description: Concomitant medications and nondrug therapies were also be recorded.
# Safety Analyses. Safety data was summarized using counts and percentages for categorical data and descriptive statistics (mean, standard deviation, median, minimum, maximum) for continuous data. • Efficacy Results from the ATB200-03 Trial
# [4] = tested on: single fibers isolated from the white gastrocnemius of Gaa KO mice; assay: Single fiber analysis (LAMP1/LC3 co-immunofluorescence); format: in vivo
# Description: FIG. 17 depicts co-immunofluorescent staining of LAMP1 (green) (see for example, “B”) and LC3 (red) (see, for example, “A”) in single fibers isolated from the white gastrocnemius of Gaa KO mice treated with a vehicle, alglucosidase alfa, or ATB200. “C” depicts clearance of autophagic debris and absence of enlarged lysosome. A minimum of 30 fibers were examined from each animal.
# As a result, a significant portion of muscle fibers analyzed (36-60%) from ATB200-treated mice appeared normal or near-normal.
# [5] = tested on: LOPD population (ERT-naïve and ERT-experienced); assay: Indirect treatment comparison, multi-level network meta regression (ML-NMR); design: species or system human; details: base-case scenario, sensitivity analysis (RCT data only, FIGS. 66, 67)
# Description: Moreover, a comparison of three randomized clinical trials (LOTS: alglucosidase alfa vs placebo; COMET: avalglucosidase alfa vs alglucosidase alfa; and PROPEL: cipaglucosidase alfa/miglustat vs alglucosidase alfa) share 6MWD and % predicted FVC as key primary or secondary endpoints. Using patient-level data from the PROPEL randomized clinical trial (RCT) plus aggregate published data from other RCTs, Phase I/II and open label extension trials, a multi-level network meta-regression was conducted, adjusting for various baseline covariates including previous ERT duration. The base case scenario had covariates resembling the PROPEL population (naïve and ERT-experienced) and analyzed 6MWD and FVC change from baseline at 52 weeks. […]
# A systematic literature review (SLR) was conducted to identify relevant published clinical studies of ERTs in LOPD. Outcomes assessed were change from baseline in 6-minute walking distance (6MWD) (m) and in forced vital capacity (FVC; % predicted) at week 52, acknowledged by clinicians, HTA agencies and payers as key LOPD trial endpoints. […]
# A base-case scenario was evaluated in which all covariates were set to the target population of the PROPEL trial. […]
# [6] = tested on: subjects with Pompe disease; details: LOPD, systematic review (Toscano and Schoser 2013); cited from earlier work
# [7] = tested on: adult subjects with late-onset Pompe disease (LOPD); assay: ATB200-03 (PROPEL) phase 3 trial, efficacy; format: in vivo, human; details: for absolute decline in percent-predicted FVC: 52 weeks; for 6MWD Baseline / FVC (% predicted) Baseline: before treatment
# Description: Efficacy Analyses. The primary efficacy endpoint (i.e., change from baseline to Week 52 in 6MWD) was analyzed using a parametric analysis of covariance (ANCOVA) model to compare between the new treatment and the control. […] However, the baseline 6MWD could not be used in the model twice (both as a continuous and a categorical variable) due to the expected high point biserial correlation between them. Thus, the 6MWD continuous variable remained in the model but the categorical 6MWD was removed.
# [8] = ERT treatment naive population, listed as Alglucosidase alfa
# [9] = overall ERT switch and ERT naïve population
substance,measurement,setting,value
"[199-arginine,223-histidine]prepro-α-glucosidase (human) [alglucosidase alfa]",mean urinary Glc4 concentration,[1]; Week 52,9.1 mmol/mol
same,mean urinary Glc4 concentration,[1]; baseline,7.2 mmol/mol
same,mean change of CK,[1]; after 52 weeks,+15.6%
same,mean change of urine Hex-4,"[1]; combined ERT switch and ERT naïve population, after 52 weeks",+11.0%
same,"LC3 II levels (western blot), effect on autophagy",[2],modest
same,patients who discontinued treatment due to an adverse event,[3],2.6%
same,patients with injection associated reactions (IARs),[3],26%
same,Fibers with Autophagy Buildup,[4],>90%
same,Fibers with Normal or Near-normal Appearance,[4],<10%
same,relative effect on 6MWT and FVC,[5],numerically favorable versus placebo
same,subjects without initial improvement during treatment,[6],> 30%
same,6MWD CFBL at Week 52,[7]; ERT switch population,0.0 m
same,FVC (% predicted) CFBL at Week 52,[7]; ERT switch population,−4.0 (0.9) % predicted
same,absolute decline in percent-predicted FVC,[7]; ERT switch population,4.0%
same,6MWD Baseline,[7]; ERT switch population,334.6 (114.0) m
same,FVC (% predicted) Baseline,[7]; ERT switch population,67.5 (21.0) % predicted
same,6MWD CFBL at Week 52,"[7]; ERT switch population, listed as Alglucosidase alfa",0.0 (7.2) m
same,6MWD CFBL at Week 52,[7]; ERT treatment naive population,38 m
same,FVC (% predicted) CFBL at Week 52,[7]; ERT treatment naive population,−3.6 % predicted
same,6MWD Baseline,[7]; ERT treatment naive population,420.9 (135.7) m
same,FVC (% predicted) Baseline,[7]; ERT treatment naive population,79.1 (22.6) % predicted
same,6MWD CFBL at Week 52,[7]; [8],+38.3 (11.1) m
same,FVC (% predicted) CFBL at Week 52,[7]; [8],−3.6 (1.8) % predicted
same,mean change (SD) in MMT score for lower extremities,[7]; baseline to week 52,0.9 (2.58)
same,mean change in total GSGC score,[7]; baseline to week 52,0.77 (1.8)
same,6MWD CFBL at Week 52,[7]; [9],7 m
same,6MWD Baseline,[7]; [9],351.0 (121.3) m
same,6MWD CFBL at Week 52,"[7]; overall ERT switch and ERT naïve population, listed as Alglucosidase alfa",+7.2 (6.6) m
same,GSGC compared to alglucosidase alfa,"[7]; overall and ERT-experienced populations, week 52",worsening
same,FVC (% predicted) CFBL at Week 52,[7]; overall population,−4.0 (0.8) % predicted
same,absolute decline in percent-predicted FVC,[7]; overall population,4.0%
same,FVC (% predicted) Baseline,[7]; overall population,69.7 (21.5) % predicted
